The numbers were not newly measured in patent publication US20180015057A1, “ERR ALPHA AND ERR GAMMA ARE ESSENTIAL COORDINATORS OF CARDIAC METABOLISM AND FUNCTION” (Salk Institute for Biological Studies, priority 2015, published 2018), which cites them from elsewhere.

The target in one data set is T1, ERRγ (Homo sapiens, UniProt P62508).
T1 sequence (P62508 1-458): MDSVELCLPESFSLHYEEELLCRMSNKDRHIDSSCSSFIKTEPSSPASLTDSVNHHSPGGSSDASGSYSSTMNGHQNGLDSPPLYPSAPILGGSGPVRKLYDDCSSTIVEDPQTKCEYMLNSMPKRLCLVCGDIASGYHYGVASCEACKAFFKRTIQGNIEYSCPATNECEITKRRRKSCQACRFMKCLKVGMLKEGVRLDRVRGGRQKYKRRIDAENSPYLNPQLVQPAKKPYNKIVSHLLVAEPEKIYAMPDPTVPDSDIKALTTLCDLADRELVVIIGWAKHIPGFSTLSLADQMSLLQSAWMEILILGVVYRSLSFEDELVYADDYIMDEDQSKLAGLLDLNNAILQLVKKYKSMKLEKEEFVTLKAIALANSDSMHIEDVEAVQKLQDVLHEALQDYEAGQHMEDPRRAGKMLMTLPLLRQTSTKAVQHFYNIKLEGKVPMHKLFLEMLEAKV
The note with it: for activation of ERRγ: for example in the presence of PGC-1a.

In another data set the target is T2, ERRβ (Homo sapiens, UniProt O95718).
T2 sequence (O95718 1-433): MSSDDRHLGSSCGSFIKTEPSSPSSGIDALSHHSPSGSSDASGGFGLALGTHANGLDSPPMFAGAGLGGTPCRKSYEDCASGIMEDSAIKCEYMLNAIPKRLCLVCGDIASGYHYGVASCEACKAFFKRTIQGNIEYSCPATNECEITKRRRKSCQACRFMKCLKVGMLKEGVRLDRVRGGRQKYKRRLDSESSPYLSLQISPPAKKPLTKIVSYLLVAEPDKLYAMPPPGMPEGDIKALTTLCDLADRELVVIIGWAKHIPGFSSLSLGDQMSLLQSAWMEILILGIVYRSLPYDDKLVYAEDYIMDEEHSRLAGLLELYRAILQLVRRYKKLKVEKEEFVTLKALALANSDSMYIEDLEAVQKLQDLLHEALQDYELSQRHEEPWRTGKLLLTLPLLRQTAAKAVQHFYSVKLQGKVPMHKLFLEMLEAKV
The note with it: for activation of ERRβ: for example in the presence of PGC-1a.

For a further data set, the target named is T3, ERRα (Homo sapiens, UniProt P11474).
T3 sequence (P11474 1-423): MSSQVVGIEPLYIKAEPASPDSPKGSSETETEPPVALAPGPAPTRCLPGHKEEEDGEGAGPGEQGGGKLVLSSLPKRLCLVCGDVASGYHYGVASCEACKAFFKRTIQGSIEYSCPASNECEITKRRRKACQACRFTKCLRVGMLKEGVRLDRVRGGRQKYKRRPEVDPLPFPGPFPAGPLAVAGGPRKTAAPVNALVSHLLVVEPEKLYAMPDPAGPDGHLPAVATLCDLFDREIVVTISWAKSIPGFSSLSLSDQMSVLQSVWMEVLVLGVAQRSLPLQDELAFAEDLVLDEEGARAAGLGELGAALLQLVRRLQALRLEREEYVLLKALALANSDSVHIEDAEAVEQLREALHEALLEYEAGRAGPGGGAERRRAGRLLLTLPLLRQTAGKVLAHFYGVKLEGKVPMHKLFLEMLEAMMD
The note with it: for example in the presence of PGC-1a.

Take `CCN(CC)c1ccc(C=NNC(=O)c2ccc(O)cc2)cc1` (stereo in doubt) [GSK9089, N-[(E)-[4-(diethylamino)phenyl]methylideneamino]-4-hydroxybenzamide]: the “agonism of ERRγ” value at ERRγ was “agonists”. Moreover, at ERRβ, the “agonism of ERRβ” value is “agonists”.

Take `Cc1cccc(C=NNC(=O)c2ccc(O)cc2)c1` [DY159]: the “activation of ERRα” value on ERRα is recorded as “activate”. Moreover, the “activation of ERRγ” value on ERRγ was “activate”. The “activation of ERRβ” value on ERRβ was “activate”.

Turning to `O=C(NN=Cc1ccccc1)c1ccc(O)cc1` [DY162], on ERRα, the “activation of ERRα” value is listed as “activate”. Moreover, the “activation of ERRγ” value on ERRγ is “activate”. The “activation of ERRβ” value on ERRβ is on record as “activate”.

With `Cc1ccc(/C=N/NC(=O)c2ccc(O)cc2)cc1` [DY163], the “activation of ERRα” value on ERRα is listed as “activate”. Also, the “activation of ERRγ” value on ERRγ is “activate”. Also, the “activation of ERRβ” value on ERRβ is “activate”.

On to `CCc1ccc(C=NNC(=O)c2ccc(O)cc2)s1` [DY164], for which the “activation of ERRα” value at ERRα is reported as “activate”. The “activation of ERRγ” value at ERRγ is reported as “activate”. The “activation of ERRβ” value at ERRβ was “activate”.

Turning to `Nc1ccc(C(=O)N/N=C/c2ccc(/N=N/c3ccccc3)cc2)cn1` [E6], the “selectivity for ERRγ versus ERRα and β” value on ERRγ (screening assay for agonists derived from GSK4716 (Kim et al. 2009)) is “selective for ERRγ but not ERRα and β”.

Take `CC(C)c1ccc(/C=N/NC(=O)c2ccc(O)cc2)cc1` [GSK4716]: on ERRβ, the “agonism of ERRβ” value was “agonists”.
